Laboratory results from ChEMBL document CHEMBL1144757, “Stylopeptide 2, a proline-rich cyclodecapeptide from the sponge Stylotella sp” (2008).
Where a SMILES comes first, the peptide text is derived from it.

Legend:
BT-549 = assay: Growth inhibition of human BT549 cells at 10 uM; type: functional
Hs-578T = assay: Growth inhibition of human HS578T cells at 10 uM; type: functional

In the case of `CC(C)C[C@@H]1NC(=O)[C@H]([C@@H](C)O)NC(=O)[C@@H]2CCCN2C(=O)[C@H](Cc2ccccc2)NC(=O)[C@@H]2CCCN2C(=O)[C@H](Cc2ccc(O)cc2)NC(=O)[C@@H]2CCCN2C(=O)[C@H](Cc2ccccc2)NC(=O)[C@@H]2CCCN2C(=O)[C@H](CC(C)C)NC1=O` [STYLOPEPTIDE 2] (cyclo(FPTLLPFPYP)), the inhibition at 10 µM (BT-549) was 77% and the inhibition at 10 µM (Hs-578T) was 56%.
